From patent US9238656B2, “Imidazo[4,5-b]pyridine derivatives as ALK and JAK modulators for the treatment of proliferative disorders” (priority 2012, dated 2016)
Where a name gives a salt, the structure may show the parent alone.

How the values were obtained:
[1] = target: baculovirus-expressed ALK (Homo sapiens, UniProt Q9UM73); experiment: ALK kinase inhibition, TRF/ELISA; assay type: biochemical; conditions: read-out: ALK Potency
Experimental: Briefly, each 96-well plate was coated with 100 μL/well of 10 μg/mL substrate (GST-PLC-γ) in Tris-buffered saline (TBS). […] The reaction was initiated by adding enzyme (30 ng/mL ALK) and was allowed to proceed at 37° C. for 15 minutes. Detection of the phosphorylated product was performed by adding 100 μL/well of Eu-N1 labeled PT66 antibody (Perkin Elmer #AD0041). […] Data analysis was performed using ActivityBase (IDBS, Guilford, UK). IC50 values were calculated by plotting percent inhibition versus log10 of the concentration of compound and fitting to the nonlinear regression sigmoidal dose-response (variable slope) equation in XLFit (IDBS, Guilford, UK).

[2] = target: baculovirus-expressed JAK2 kinase (Homo sapiens, UniProt O60674); experiment: biochemical; conditions: 0.2 μM ATP; read-out: JAK2 Potency
Sequence of baculovirus-expressed JAK2 kinase (O60674 whole entry): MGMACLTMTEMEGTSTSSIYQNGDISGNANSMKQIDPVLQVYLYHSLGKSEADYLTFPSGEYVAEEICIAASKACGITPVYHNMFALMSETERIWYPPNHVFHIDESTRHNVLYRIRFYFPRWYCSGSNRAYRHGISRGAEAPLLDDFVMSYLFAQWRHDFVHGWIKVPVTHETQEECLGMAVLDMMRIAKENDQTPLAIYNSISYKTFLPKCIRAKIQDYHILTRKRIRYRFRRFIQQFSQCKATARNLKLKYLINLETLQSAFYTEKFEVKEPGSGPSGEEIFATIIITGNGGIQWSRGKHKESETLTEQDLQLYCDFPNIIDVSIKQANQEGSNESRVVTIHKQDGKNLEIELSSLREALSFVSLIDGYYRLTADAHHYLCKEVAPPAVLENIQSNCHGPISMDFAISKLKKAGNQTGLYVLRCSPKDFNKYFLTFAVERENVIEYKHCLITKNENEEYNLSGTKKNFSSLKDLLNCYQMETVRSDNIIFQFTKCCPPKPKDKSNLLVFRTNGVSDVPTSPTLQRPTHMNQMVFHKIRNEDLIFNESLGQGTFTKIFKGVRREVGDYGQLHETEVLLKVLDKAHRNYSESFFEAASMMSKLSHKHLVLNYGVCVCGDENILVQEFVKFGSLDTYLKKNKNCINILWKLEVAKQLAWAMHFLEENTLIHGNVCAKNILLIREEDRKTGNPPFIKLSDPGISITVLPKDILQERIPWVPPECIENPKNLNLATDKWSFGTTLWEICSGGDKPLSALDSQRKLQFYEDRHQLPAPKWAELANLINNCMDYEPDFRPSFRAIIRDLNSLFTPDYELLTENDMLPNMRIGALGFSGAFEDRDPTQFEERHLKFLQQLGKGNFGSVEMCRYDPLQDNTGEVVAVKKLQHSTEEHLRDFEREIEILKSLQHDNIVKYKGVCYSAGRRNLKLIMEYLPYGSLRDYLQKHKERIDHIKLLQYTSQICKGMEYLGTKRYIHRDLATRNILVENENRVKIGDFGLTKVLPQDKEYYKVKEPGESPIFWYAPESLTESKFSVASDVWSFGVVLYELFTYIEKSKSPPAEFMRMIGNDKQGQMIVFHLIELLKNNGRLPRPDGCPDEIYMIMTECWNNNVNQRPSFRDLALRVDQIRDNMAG
Experimental: Compounds were tested for their ability to inhibit the kinase activity of baculovirus-expressed JAK2 kinase using the time-resolved fluorescence (TRF) detection system. […] The plates were coated with 100 μL/well of 10 μg/mL Neutravidin (Pierce #31000, Rockford, Ill.) in TBS at 37° C. for 2 h, followed by 100 μL/well of 1 μg/mL 15-mer peptide substrate (biotinyl-amino-hexanoyl-[…]-amide, Infinity Biotech Research and Resource, Aston, Pa.) at 37° C. for 1 h. […] Enzyme (15 ng/mL JAK2) was added and the reaction was allowed to proceed at room temperature for 20 min. […] Inhibition data were analyzed using ActivityBase (IDBS, Guilford, UK). IC50 values were calculated by plotting percent inhibition versus log10 of the concentration of compound and fitting to the nonlinear regression sigmoidal dose-response (variable slope) equation in XLFit (IDBS, Guilford, UK).

Sequence of baculovirus-expressed ALK (Q9UM73 19-1620): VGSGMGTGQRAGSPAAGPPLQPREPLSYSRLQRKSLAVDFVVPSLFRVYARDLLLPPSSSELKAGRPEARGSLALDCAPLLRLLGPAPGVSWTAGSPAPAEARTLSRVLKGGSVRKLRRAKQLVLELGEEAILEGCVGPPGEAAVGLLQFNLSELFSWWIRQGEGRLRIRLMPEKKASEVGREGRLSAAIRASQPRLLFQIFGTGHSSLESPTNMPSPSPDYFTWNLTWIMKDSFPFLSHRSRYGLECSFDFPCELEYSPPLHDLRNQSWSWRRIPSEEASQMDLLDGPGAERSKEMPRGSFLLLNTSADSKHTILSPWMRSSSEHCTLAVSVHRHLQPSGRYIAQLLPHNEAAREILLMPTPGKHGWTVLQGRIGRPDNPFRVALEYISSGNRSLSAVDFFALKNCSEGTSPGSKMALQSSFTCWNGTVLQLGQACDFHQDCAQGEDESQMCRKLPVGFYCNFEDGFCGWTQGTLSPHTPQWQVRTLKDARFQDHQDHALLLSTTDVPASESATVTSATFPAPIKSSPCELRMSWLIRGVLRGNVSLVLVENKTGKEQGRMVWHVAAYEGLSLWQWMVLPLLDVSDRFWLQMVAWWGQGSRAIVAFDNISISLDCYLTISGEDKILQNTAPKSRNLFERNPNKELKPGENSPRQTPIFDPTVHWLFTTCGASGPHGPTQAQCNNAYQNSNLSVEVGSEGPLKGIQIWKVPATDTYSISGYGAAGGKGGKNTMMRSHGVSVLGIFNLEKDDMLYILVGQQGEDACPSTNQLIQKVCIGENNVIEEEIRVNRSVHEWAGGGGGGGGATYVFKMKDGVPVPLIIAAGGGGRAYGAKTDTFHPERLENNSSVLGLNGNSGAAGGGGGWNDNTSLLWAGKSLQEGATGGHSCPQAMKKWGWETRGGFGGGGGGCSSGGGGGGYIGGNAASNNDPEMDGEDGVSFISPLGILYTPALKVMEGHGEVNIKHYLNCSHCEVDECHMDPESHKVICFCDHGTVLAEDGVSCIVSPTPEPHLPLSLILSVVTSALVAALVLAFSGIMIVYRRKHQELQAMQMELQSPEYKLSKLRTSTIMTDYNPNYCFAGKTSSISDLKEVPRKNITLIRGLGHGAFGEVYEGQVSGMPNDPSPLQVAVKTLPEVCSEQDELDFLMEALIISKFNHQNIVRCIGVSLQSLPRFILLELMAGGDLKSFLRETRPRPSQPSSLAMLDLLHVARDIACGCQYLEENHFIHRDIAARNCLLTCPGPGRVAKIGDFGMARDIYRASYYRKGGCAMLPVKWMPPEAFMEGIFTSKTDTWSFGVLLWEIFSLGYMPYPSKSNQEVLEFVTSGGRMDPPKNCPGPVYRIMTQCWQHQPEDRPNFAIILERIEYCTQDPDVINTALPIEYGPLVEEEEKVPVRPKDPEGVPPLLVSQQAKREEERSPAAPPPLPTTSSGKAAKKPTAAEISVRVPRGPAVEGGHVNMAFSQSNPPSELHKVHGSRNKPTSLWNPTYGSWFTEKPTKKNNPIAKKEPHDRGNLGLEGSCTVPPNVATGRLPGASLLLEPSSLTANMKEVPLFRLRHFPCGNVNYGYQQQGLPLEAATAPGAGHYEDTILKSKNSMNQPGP

Row | IC50 [1] | IC50 [2] | Structure (SMILES)
1 | < 100 nM | < 100 nM | CN(C)CCOc1ccc(-c2nc3c(N[C@H]4[C@@H](C(N)=O)[C@@H]5C=C[C@H]4C5)c(Cl)cnc3[nH]2)cc1 [Compound CCXLIX, (1S,2S,3R,4R)-3-(6-chloro-2-(4-(2-(dimethylamino)ethoxy)phenyl)-3H-imidazo[4,5-b]pyridin-7-ylamino)bicyclo[2.2.1]hept-5-ene-2-carboxamide]
2 | 100 to 1000 nM | < 100 nM | NC(=O)[C@@H]1[C@H](Nc2c(Cl)cnc3[nH]c(-c4cncs4)nc23)[C@H]2C=C[C@@H]1C2 [Compound CCVII, (1S,2S,3R,4R)-3-(6-chloro-2-(thiazol-5-yl)-3H-imidazo[4,5-b]pyridin-7-ylamino)bicyclo[2.2.1]hept-5-ene-2-carboxamide]
3 | 100 to 1000 nM | < 100 nM | COc1ccccc1Nc1nc2c(N[C@H]3[C@@H](C(N)=O)[C@@H]4C=C[C@H]3C4)c(Cl)cnc2[nH]1 [Compound LXVIII, (1S,2S,3R,4R)-3-[6-Chloro-2-(2-methoxy-phenylamino)-3H-imidazo[4,5-b]pyridine-7-ylamino]-bicyclo[2.2.1]hept-5-ene-2-carboxylic acid amide]
4 | < 100 nM | < 100 nM | CC(O)CN1CCC(Oc2ccc(-c3nc4c(N[C@H]5[C@@H](C(N)=O)[C@@H]6C=C[C@H]5C6)c(Cl)cnc4[nH]3)cc2)CC1 (stereo partly drawn) [Compound CCLII, (1S,2S,3R,4R)-3-(6-chloro-2-(4-(1-(2-hydroxypropyl)piperidin-4-yloxy)phenyl)-3H-imidazo[4,5-b]pyridin-7-ylamino)bicyclo[2.2.1]hept-5-ene-2-carboxamide]
5 | < 100 nM | < 100 nM | Cc1nc(C2CCNCC2)sc1-c1nc2c(N[C@H]3[C@@H](C(N)=O)[C@@H]4C=C[C@H]3C4)c(Cl)cnc2[nH]1 [Compound LXIV, (1S,2S,3R,4R)-3-[6-Chloro-2-(4-methyl-2-piperidin-4-yl-thiazol-5-yl)-3H-imidazo[4,5-b]pyridine-7-ylamino]-bicyclo[2.2.1]hept-5-ene-2-carboxylic acid amide]
6 | < 100 nM | < 100 nM | CN1CCN(CCOc2ccc(-c3nc4c(N[C@H]5[C@@H](C(=O)N(C)C)[C@@H]6C=C[C@H]5C6)c(Cl)cnc4[nH]3)cc2)CC1 [Compound CLXXV, (1S,2S,3R,4R)-3-(6-Chloro-2-{4-[2-(4-methyl-piperazin-1-yl)-ethoxy]-phenyl}-3H-imidazo[4,5-b]pyridin-7-ylamino)-bicyclo[2.2.1]hept-5-ene-2-carboxylic acid dimethylamide]
7 | < 100 nM | < 100 nM | NC(=O)[C@@H]1[C@H](Nc2c(Br)cnc3[nH]c(-c4ccc(N5CCOCC5)cc4Cl)nc23)[C@H]2C=C[C@@H]1C2 [Compound CXXXIV, (1S,2S,3R,4R)-3-[6-Bromo-2-(2-chloro-4-morpholin-4-yl-phenyl)-3H-imidazo[4,5-b]pyridin-7-ylamino]-bicyclo[2.2.1]hept-5-ene-2-carboxylic acid amide]
8 | < 100 nM | 1000 to 10000 nM | COc1cc(CN2CC[C@@H](O)C2)ccc1-c1nc2c(N[C@@H]3CCCC[C@H]3NS(C)(=O)=O)c(Cl)cnc2[nH]1 [Compound LXXV, N-((1R,2R)-2-{6-Chloro-2-[4-((R)-3-hydroxy-pyrrolidin-1-ylmethyl)-2-methoxy-phenyl]-3H-imidazo[4,5-b]pyridine-7-ylamino}-cyclohexyl)-methanesulfonamide]
9 | 100 to 1000 nM | < 100 nM | Cc1cc(N2CCOCC2)ccc1-c1nc2c(N[C@H]3[C@@H](C(N)=O)[C@@H]4C=C[C@H]3C4)c(Cl)cnc2[nH]1 [Compound CXXI, (1S,2S,3R,4R)-3-[6-Chloro-2-(2-methyl-4-morpholin-4-yl-phenyl)-3H-imidazo[4,5-b]pyridin-7-ylamino]-bicyclo[2.2.1]hept-5-ene-2-carboxylic acid amide]
10 | 100 to 1000 nM | 1000 to 10000 nM | CC(C)NC(=O)[C@@H]1[C@H](Nc2c(Cl)cnc3[nH]c(-c4sc(N5CC[C@@H](O)C5)nc4Cl)nc23)[C@H]2C=C[C@@H]1C2 [Compound CLXIX, (1S,2S,3R,4R)-3-{6-Chloro-2-[4-chloro-2-((R)-3-hydroxy-pyrrolidin-1-yl)-thiazol-5-yl]-1H-imidazo[4,5-b]pyridin-7-ylamino}-bicyclo[2.2.1]hept-5-ene-2-carboxylic acid isopropylamide]
11 | 1000 to 10000 nM | 1000 to 10000 nM | CC(C)(C)OC(=O)N1CCC(c2nc3c(N[C@H]4[C@@H](C(N)=O)[C@@H]5C=C[C@H]4C5)c(Cl)cnc3[nH]2)CC1 [Compound CCXV, tert-butyl 4-(7-((1R,2R,3S,4S)-3-carbamoylbicyclo[2.2.1]hept-5-en-2-ylamino)-6-chloro-3H-imidazo[4,5-b]pyridin-2-yl)piperidine-1-carboxylate]
12 | < 100 nM | < 100 nM | COc1cc(C(=O)N2CCOCC2)ccc1-c1nc2c(N[C@H]3[C@@H](C(N)=O)[C@@H]4C=C[C@H]3C4)c(Cl)cnc2[nH]1 [Compound LXIII, (1S,2S,3R,4R)-3-{6-Chloro-2-[2-methoxy-4-(morpholine-4-carbonyl)-phenyl]-3H-imidazo[4,5-b]pyridine-7-ylamino}-bicyclo[2.2.1]hept-5-ene-2-carboxylic acid amide]
13 | 100 to 1000 nM | < 100 nM | NC(=O)[C@@H]1[C@H](Nc2c(Cl)cnc3[nH]c(-c4ccc(N5CCOCC5)c(Cl)c4)nc23)[C@H]2C=C[C@@H]1C2 [Compound CXXXVII, (1S,2S,3R,4R)-3-[6-Chloro-2-(3-chloro-4-morpholin-4-yl-phenyl)-3H-imidazo[4,5-b]pyridin-7-ylamino]-bicyclo[2.2.1]hept-5-ene-2-carboxylic acid amide]
14 | < 100 nM | < 100 nM | COc1cc(N(C)C)ccc1-c1nc2c(N[C@H]3[C@@H](C(N)=O)[C@@H]4C=C[C@H]3C4)c(Cl)cnc2[nH]1 [Compound XVII, (1S,2S,3R,4R)-3-[6-Chloro-2-(4-dimethylamino-2-methoxy-phenyl)-3H-imidazo[4,5-b]pyridine-7-ylamino]-bicyclo[2.2.1]hept-5-ene-2-carboxylic acid amide]
15 | < 100 nM | < 100 nM | CN(C)CCNC(=O)c1ccc(-c2nc3c(N[C@H]4[C@@H](C(N)=O)[C@@H]5C=C[C@H]4C5)c(Cl)cnc3[nH]2)cc1 [Compound CCXXXII, (1S,2S,3R,4R)-3-{6-Chloro-2-[4-(2-dimethylamino-ethylcarbamoyl)-phenyl]-3H-imidazo[4,5-b]pyridine-7-ylamino}-bicyclo[2.2.1]hept-5-ene-2-carboxylic acid amide]
16 | 100 to 1000 nM | < 100 nM | NC(=O)[C@@H]1[C@H](Nc2c(Br)cnc3[nH]c(-c4ccc(F)cc4)nc23)[C@H]2C=C[C@@H]1C2 [Compound CXXXIII, (1S,2S,3R,4R)-3-[6-Bromo-2-(4-fluoro-phenyl)-3H-imidazo[4,5-b]pyridin-7-ylamino]-bicyclo[2.2.1]hept-5-ene-2-carboxylic acid amide]
17 | < 100 nM | < 100 nM | CCNC(=O)N1CCC(n2cc(-c3nc4c(N[C@H]5[C@@H](C(N)=O)[C@@H]6C=C[C@H]5C6)c(Cl)cnc4[nH]3)cn2)CC1 [Compound LXII, 4-{4-[7-((1R,2R,3S,4S)-3-Carbamoyl-bicyclo[2.2.1]hept-5-ene-2-ylamino)-6-chloro-3H-imidazo[4,5-b]pyridine-2-yl]-pyrazol-1-yl)-piperidine-1-carboxylic acid ethylamide]
18 | < 100 nM | < 100 nM | Cc1nn(C)c(C)c1-c1nc2c(N[C@H]3[C@@H](C(N)=O)[C@@H]4C=C[C@H]3C4)c(Br)cnc2[nH]1 [Compound CLII, (1S,2S,3R,4R)-3-[6-Bromo-2-(1,3,5-trimethyl-1H-pyrazol-4-yl)-3H-imidazo[4,5-b]pyridin-7-ylamino]-bicyclo[2.2.1]hept-5-ene-2-carboxylic acid amide]
19 | < 100 nM | < 100 nM | NC(=O)[C@@H]1[C@H](Nc2c(Cl)cnc3[nH]c(-c4ccc(CN5CCOCC5)cc4)nc23)[C@H]2C=C[C@@H]1C2 [Compound III, (1S,2S,3R,4R)-3-[6-Chloro-2-(4-morpholin-4-ylmethyl-phenyl)-3H-imidazo[4,5-b]pyridine-7-ylamino]-bicyclo[2.2.1]hept-5-ene-2-carboxylic acid amide-trifluoroacetate salt]
20 | < 100 nM | < 100 nM | CN(C)C(=O)[C@@H]1[C@H](Nc2c(Cl)cnc3[nH]c(-c4sc(N5CCCC5)nc4Cl)nc23)[C@H]2C=C[C@@H]1C2 [Compound CLXIV, (1S,2S,3R,4R)-3-[6-Chloro-2-(4-chloro-2-pyrrolidin-1-yl-thiazol-5-yl)-3H-imidazo[4,5-b]pyridin-7-ylamino]-bicyclo[2.2.1]hept-5-ene-2-carboxylic acid dimethylamide]
21 | < 100 nM | < 100 nM | CN1CCN(C(=O)COc2cccc(-c3nc4c(N[C@H]5[C@@H](C(N)=O)[C@@H]6C=C[C@H]5C6)c(Cl)cnc4[nH]3)c2)CC1 [Compound CCXLIII, (1S,2S,3R,4R)-3-(6-chloro-2-(3-(2-(4-methylpiperazin-1-yl)-2-oxoethoxy)phenyl)-3H-imidazo[4,5-b]pyridine-7-ylamino)pyridin[2.2.1]hept-5-ene-2-carboxamide]
